Patent US20020193850A1, “Use of photodynamic therapy to treat prostatic tissue” (priority 1993, published 2002)
Where two headings read alike, the source gives them in different places. Marks after values point to notes of the source that are not given here.

Legend:
prostatic tissue = assay: Transurethral photodynamic therapy of the prostate
Description: (§1) Animals: Adult mongrel dogs were used in all experiments. Dogs were housed 1/cage and given water and canine chow (Purina Chow, Ralston Purina Corp.) ad libitum.
(§2) Photosensitive composition: The photosensitizer, tin ethyl etiopurpurin was used. The photosensitizer was administered in anesthetized (xylazine/ketamine) dogs as an emulsion via antecubital vein 24 hours prior to light treatment.
Light source and delivery: An LTI 660 dye laser (PDT Systems, Santa Barbara, Calif.) pumped by a KTP/YAG laser (Laserscope, San Jose, Calif.), was used as a light source. Laser light was delivered to the prostate via a 400 micron optical fiber fitted with a 2.0 cm flexible cylindrical diffuser tip (PDT Systems, Inc., Santa Barbara, Calif.).
Tissue Preparation: On removal, the prostates were photographed and then fixed in a 10% buffered formalin solution. After fixation, tissue was sectioned at 5u intervals and stained with H & E. Sections of the urinary bladder were removed and prepared in a similar manner.
Prostate treatment: The animals were injected with 1.0 mg/kg of the photosensitizer. Twenty-four hours after photosensitizer administration the animals were anesthetized with intravenous sodium barbiturate. The animals were intubated and maintained on a respirator during light treatment. They were treated in the dorsolithotomy position. The 2 cm. diffusing tip of the laser fiber was localized in the prostatic urethra under transrectal ultrasound guidance. A Bruel and Kreuger 7.0 megahertz ultrasound scanner with a transrectal probe was used. The laser fiber was placed within a transparent 10F Stamey catheter (TFX Medical, Duluth, Ga.) which was used as a laser fiber carrier. The tip of the catheter was positioned immediately outside the bladder neck. Once positioned, the prostate was treated with 300 (260 mW/cm^2) joules of laser light. The animals were then recovered and returned to their cages, Indwelling catheters were not used after treatment.

[1] = 1.0 mg/kg, 24 hours after injection
Description: as §1, §2
Photosensitizer extraction: The animals were injected with 1.0 mg/kg of the photosensitizer. Twenty-four hours later, prostate and other tissues were removed from euthanized animals. Tissue samples were removed from the periurethral prostate and the more peripheral regions. Additionally, the mucosa of the urethra was dissected and its photosensitizer content determined. Bladder mucosa and muscularis were also removed. Tissue was weighed and homogenized with a biohomogenizer (Biospec Products, Inc., Bartleville, Okla.) in 3% acetic acid. After homogenization, a 3:1 ethyl acetate:glacial acetic acid mixture was added and mixed vigorously. The sample was then frozen at −20° C. for at least two hours after which it was thawed and saturated sodium acetate added. The ethyl acetate layer, containing the photosensitizer, was removed and its concentration determined using absorbance spectrophotometry (Response II spectrophotomer, Gilford, Oberlin, Ohio).

R3327AT prostate tumor [2] = assay: R3327AT prostate tumor model, photodynamic therapy, tumor growth delay (Example 2); format: in vivo, male Copenhagen rats; details: drug dose 1.5 mg/kg
Description: The R3327AT prostate tumor model was used in male Copenhagen rats which were injected with 1.5 mg/kg body wt. of SnET2 (tin ethyl etiopurpurin Emulsion, (0.94 mg/ml) PDT Pharmaceuticals). Each rat had one flank tumor (R3327AT). After two weeks, the tumors ranged from 1.0 to 1.6 cm in length. Twenty four hours after TEP injection, the tumor area received photodynamic therapy with a light source of a KTP pumped 660 dye laser (PDT Systems). The KTP/660 dye laser was tuned to 660 nm; power density: 200 mw/cm^2; light dose: 0, 200, 300 and 400 Joules. Tumor temperatures were monitored using a 23 gge. hypodermic probe (YSI) placed percutaneously beneath the treated tumor. If needed, the tumors were cooled by a jet of cool air. Tumors were measured and recorded three times per week.
The linear regression of tumor growth (represented as tumor volume) for each rat was plotted. The number of days it took the treated tumors to reach their initial tumor volume at the time of treatment was determined by the intercept with a horizontal line drawn at the mean initial tumor volume for all groups. The mean number of days for each light/drug dose group to reach its initial tumor size is recorded in Table 3 below.

R3327AT prostate tumor [3] = assay: R3327AT prostate tumor model, photodynamic therapy with 659 YAG or 660 Dye laser (Example 3); format: in vivo, male Copenhagen rats; details: 1.5 mg/kg
Description: The R3327AT prostate tumor model was used in male Copenhagen rats which were injected with 1.5 mg/kg body wt. of SnET2 (Tin Ethyl Etiopurpurin Emulsion, PDT Pharmaceuticals). Each rat had one flank tumor (R3327AT). After two weeks, the tumors ranged from 1.0 to 1.6 cm in length. Twenty four hours (+/−2 hrs.) after SnET2 injection the tumor area received photodynamic therapy using either a 659 YAG or 660 Dye laser fiber optically coupled to a 3-way fiber splitter.
Tumor temperatures were monitored using a 23 gge. hypodermic probe (YSI) placed percutaneously beneath the treated tumor. If needed, the tumors were cooled by a jet of cool air. Tumor diameters were measured and recorded three times per week.
Tumor growth was monitored by calculating volumes from the recorded measurements of tumor width, height and length. The rate of growth is presented as the number of days required for an individual tumor to reach 2, 5 or 10 times initial volume. This method of analysis of tumor growth accounts for variations due to differing initial tumor volume (Gibson and Hilf, Cancer Research, 1990). […] Only at the 200 Joule fluence level was there any significant difference between the YAG and Dye lasers in producing tumor growth delay.

[4] = Mean +/- SD, listed as Photosensitizer, 1 mg/kg

Q: Which results are given for `CCOC(=O)C1=Cc2c3nc(cc4nc(cc5[n-]c(cc6[n-]c2c(C)c6CC)c(C)c5CC)C(C)=C4CC)[C@@H](C)[C@]13CC.[Cl-].[Cl-].[Sn]` (racemic) [SnET2, tin ethyl etiopurpurin]?
A: Prostate effects of photosensitizer and light (prostatic tissue; 1.0 mg/kg, light 24 hours later, 300 joules (260 mW/cm^2), transurethral): showed evidence of a photodynamic effect; Urethral mucosa (prostatic tissue; 3 weeks following treatment, 1.0 mg/kg, 300 joules): The urethral mucosa had regenerated; Urethral epithelium (prostatic tissue; 48 hours following photodynamic therapy, 1.0 mg/kg, 300 joules): loss of the urethral epithelium; Animal recovery: voiding (prostatic tissue; after photodynamic therapy, no indwelling catheter, 1.0 mg/kg, 300 joules): All animals were able to void spontaneously; Animal recovery: hematuria (prostatic tissue; after photodynamic therapy, 1.0 mg/kg, 300 joules): Two of the animals developed gross hematuria; Changes in the bladder (prostatic tissue; after photodynamic therapy, believed due to movement or inaccurate placement of the light guide): In two of the animals there were extensive changes in the bladder; Histology of prostate (prostatic tissue; prostate removed 3 weeks following treatment, 1.0 mg/kg, 300 joules): glandular atrophy and replacement with fibrous tissue; Histologic examination of prostate around the urethra (prostatic tissue; prostates removed 48 hours following photodynamic therapy, 1.0 mg/kg, 300 joules): extensive hemmorhagic necrosis; Tissue levels of photosensitizer compared with plasma levels [1]: significantly greater than plasma levels; Photosensitizer concentration, Bladder ([1]; Dog 1): 0.2 µg/g; Photosensitizer concentration, Prostate ([1]; Dog 1): 2.1 * ug/g; Photosensitizer concentration, Urethra ([1]; Dog 1): 0.5 µg/g; Photosensitizer concentration, Bladder ([1]; Dog 2): 0.2 µg/g; Photosensitizer concentration, Kidney ([1]; Dog 2): 2.5 µg/g; Photosensitizer concentration, Liver ([1]; Dog 2): 6.7 µg/g; Photosensitizer concentration, Muscle ([1]; Dog 2): 0.3 µg/g; Photosensitizer concentration, Plasma (24-hr) ([1]; Dog 2): 0.1 * * ug/ml; Photosensitizer concentration, Prostate ([1]; Dog 2): 0.8 µg/g; Photosensitizer concentration, Spleen ([1]; Dog 2): 0.8 µg/g; Photosensitizer concentration, Urethra ([1]; Dog 2): 0.3 µg/g; Photosensitizer concentration, Bladder ([1]; Dog 3): 0.2 µg/g; Photosensitizer concentration, Kidney ([1]; Dog 3): 2.9 µg/g; Photosensitizer concentration, Liver ([1]; Dog 3): 6.1 µg/g; Photosensitizer concentration, Muscle ([1]; Dog 3): 0.2 µg/g; Photosensitizer concentration, Plasma (24-hr) ([1]; Dog 3): 0.1 µg/mL; Photosensitizer concentration, Prostate ([1]; Dog 3): 0.9 µg/g; Photosensitizer concentration, Spleen ([1]; Dog 3): 0.8 µg/g; Photosensitizer concentration, Urethra ([1]; Dog 3): 0.2 µg/g; Photosensitizer concentration, Kidney ([1]; Mean +/- SD): 2.7 ± 0.2 µg/g; Photosensitizer concentration, Liver ([1]; Mean +/- SD): 6.7 ± 0.2 µg/g; Photosensitizer concentration, Muscle ([1]; Mean +/- SD): 0.3 ± 0.1 µg/g; Photosensitizer concentration, Plasma (24-hr) ([1]; Mean +/- SD): 0.1 ± 0 µg/mL; Photosensitizer concentration, Spleen ([1]; Mean +/- SD): 0.8 ± 0 µg/g; Photosensitizer concentration, Bladder [1, 4]: 0.2 ± 0 µg/g; Photosensitizer concentration, Prostate [1, 4]: 1.3 ± 0.6 µg/g; Photosensitizer concentration, Urethra [1, 4]: 0.3 ± 0.1 µg/g; # of Days of Growth Delay (R3327AT prostate tumor [2]; Group II: light dose 0 Joules): 0 days; # of Days of Growth Delay (R3327AT prostate tumor [2]; Group III: light dose 200 Joules, 660 nm, 200 mw/cm^2): 6.2 ± 1.2 days; # of Days of Growth Delay (R3327AT prostate tumor [2]; Group IV: light dose 300 Joules, 660 nm, 200 mw/cm^2): 5.8 ± 0.8 days; # of Days of Growth Delay (R3327AT prostate tumor [2]; Group V: light dose 400 Joules, 660 nm, 200 mw/cm^2): 11.4 ± 3.7 days; Difference between 660 Dye and 659 YAG lasers as light source for photodynamic therapy (R3327AT prostate tumor [3]; 200 mw/cm^2, significant difference only at the 200 Joule fluence level): no consistent significant difference; Tumor growth delay from initial to 2 times initial volume as compared to controls (R3327AT prostate tumor [3]; 659 YAG and 660 Dye lasers, 200-400 Joules, especially at the 400 Joule level): effective in delaying tumor growth
